Key:
[1] = tested on: EATC; assay: D-threo-PDMP with detergents (Myrj 52 or Pluronic F68) in mice; type: in vivo; conditions: for Number of apparently cured mice at 60 days: 8 mice
Protocol: Male mice of the ICR (Swiss Hsd) strain from Harlan--Sprague Dawley (Indianapolis, Ind.) were injected intraperitoneal with saline containing 2×10^6 Ehrlich ascites tumor cells (EATC) on day 0. Each cage contained 4 or 5 mice which had been weight matched by a computer program for similar means (about 25 g) and similar standard deviations. Treatment began 24 hours later with intraperitoneal injections of saline or inhibitor, either as the acetate salt or as the hydrochloride salt. The inhibitor was dissolved in 40° C. saline and injected at 10 μl/g body weight. In the case of drugs that were difficult to dissolve, e.g. the hydrochlorides, a non-ionic, low toxicity detergent was included to emulsify the drug, making it suitable for injection. Two cages of mice were assigned to each control or experimental group and fed standard lab chow. In almost all cases, the mice were injected daily for a total of 10 doses.
Four groups of mice (8 per group) were injected once a day for 10 d with 120 mg/kg of D-threo-PDMP and 60 or 180 mg/kg of Myrj 52 or Pluronic F68. No deaths occurred in these mice by 10 days and, at 60 days, the number of apparently cured mice was 2 and 3 for the two Myrj groups and 1 and 3 for the two Pluronic groups.

[2] = tested on: Ehrlich ascites cells; assay: Growth of Ehrlich ascites cells in vivo (volume of packed cells); conditions: treatment begun 3 days after EATC inoculation, 5 injections, killed 1 day later; 100 mg/kg
Protocol: A suspension of GlcCer was injected into one group of 10 mice inoculated 1 day earlier with EATC as before. Injectable suspensions of GlcCer and galactosylceramide (GalCer) were prepared by mechanical grinding in saline (10 mg/ml) and injected at a dosage of 100 mg/kg. In one experiment, the mice were killed 1 day after the last of eight daily injections and the ascites cells were flushed out of the abdomen with buffered saline and washed.
Treatments were begun 3 days after EATC inoculation. Only 5 injections were given and the mice were killed 1 day later.

[3] = target: T1, glucosyltransferase (microsomes from normal liver) (Mus musculus, UniProt O88693); assay: Glucosyltransferase assay, microsomes from normal liver; type: biochemical
T1 construct: The microsomes from normal liver (72 μg protein) required 5 μM D-threo-PDMP; from tissue; host or cells: normal liver microsomes, ICR Swiss mice
T1 sequence (O88693 1-394): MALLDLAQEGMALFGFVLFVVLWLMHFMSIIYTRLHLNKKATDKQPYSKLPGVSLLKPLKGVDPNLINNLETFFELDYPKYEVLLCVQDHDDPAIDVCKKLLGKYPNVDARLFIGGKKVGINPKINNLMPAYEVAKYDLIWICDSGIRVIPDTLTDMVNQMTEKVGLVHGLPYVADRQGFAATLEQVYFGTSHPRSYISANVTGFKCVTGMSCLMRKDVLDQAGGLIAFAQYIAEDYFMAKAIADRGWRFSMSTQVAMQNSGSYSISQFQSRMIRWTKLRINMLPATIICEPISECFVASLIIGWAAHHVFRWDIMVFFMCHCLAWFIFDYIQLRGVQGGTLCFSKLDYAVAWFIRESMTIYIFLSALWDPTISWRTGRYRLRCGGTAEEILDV
Protocol: Evidence that D-threo-PDMP acts to inhibit GlcCer biosynthesis was provided as follows from assay of glucosyltransferase. Microsomes as source of enzyme were prepared by highspeed centrifugation and stored at -70° C. before use. The incubations were at 37° C. for 30 minutes with microsomes, ATP, liposomal octanoyl sphingosine, UDP-[^3 H]glu, Mg^2+, and dithioerythritol. Microsomes from EATC (0.50 mg protein) required 20 μM PDMP to reduce the glucosyltransferase activity in half. The microsomes from normal liver (72 μg protein) required 5 μM D-threo-PDMP. While the EATC enzyme seems to be less sensitive to the inhibitor, the intraperitoneal concentration of inhibitor is initially very high.
Our tentative conclusion is that these cells obtain much of their GlcCer from the peritoneum. Thus, the effectiveness of the drug can tentatively be ascribed to a blockage of GlcCer synthesis by both the host and tumor cells.

## CCCCCCCCCC(=O)N[C@H](CN1CCOCC1)[C@H](O)c1ccccc1 [D-threo-PDMP, 1-Phenyl-2-Decanoylamino-3-Morpholino-1-Propanol]
[1]; 120 mg/kg for 10 d with Myrj 52, first group (60 mg/kg)
  Number of apparently cured mice at 60 days: 2
[1]; 120 mg/kg for 10 d with Myrj 52, second group (180 mg/kg)
  Number of apparently cured mice at 60 days: 3
[1]; 120 mg/kg for 10 d with Pluronic F68, first group (60 mg/kg)
  Number of apparently cured mice at 60 days: 1
[1]; 120 mg/kg for 10 d with Pluronic F68, second group (180 mg/kg)
  Number of apparently cured mice at 60 days: 3
[1]; 120 mg/kg once a day for 10 d with 60 or 180 mg/kg of Myrj 52 or Pluronic F68, 8 per group
  Deaths by 10 days: No deaths
[2]
  Volume of packed cells: 1.68 ± 0.86 ml/mouse
  Volume of packed cells, % of controls: 62 % of controls
[3]
  IC50: 5 µM
